Measured values reported in patent publication US8889732B2, “Fused heterocyclic compounds and thrombopoietin receptor activators” (Nissan Chemical Industries, Ltd., priority 2009, dated 2014).

molecular target: T1, human thrombopoietin receptor (c-mpl) (Homo sapiens, UniProt P40238); experiment: Stimulation of proliferation of thrombopoietin-dependent cell line UT7/EPO-mpl (WST-8); type: cell-based; conditions: concentration yielding growth rate corresponding to 50% of growth of UT-7/EPO-mpl in the presence of 10 ng/mL TPO; 4 days incubation, WST-8
T1 construct: expressed in transfected cells
T1 sequence (P40238 26-635): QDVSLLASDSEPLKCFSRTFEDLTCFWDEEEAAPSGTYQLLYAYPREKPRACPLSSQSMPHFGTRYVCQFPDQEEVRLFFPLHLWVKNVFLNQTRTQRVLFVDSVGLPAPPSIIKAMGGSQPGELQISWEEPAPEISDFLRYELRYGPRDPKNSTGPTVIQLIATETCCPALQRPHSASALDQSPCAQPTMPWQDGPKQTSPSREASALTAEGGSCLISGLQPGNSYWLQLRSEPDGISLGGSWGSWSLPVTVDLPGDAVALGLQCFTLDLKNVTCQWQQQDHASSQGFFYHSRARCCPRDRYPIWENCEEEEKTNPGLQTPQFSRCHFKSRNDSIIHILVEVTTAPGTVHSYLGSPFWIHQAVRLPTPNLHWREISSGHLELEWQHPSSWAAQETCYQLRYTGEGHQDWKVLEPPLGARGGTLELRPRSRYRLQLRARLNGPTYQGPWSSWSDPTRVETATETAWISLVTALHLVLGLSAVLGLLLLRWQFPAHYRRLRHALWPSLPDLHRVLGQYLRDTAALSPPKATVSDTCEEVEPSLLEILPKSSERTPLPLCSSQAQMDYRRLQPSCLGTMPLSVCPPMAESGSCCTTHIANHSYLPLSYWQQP
Description: The responses of thrombopoietin receptor to the compounds of Synthetic Examples of the present invention were assayed using a human leukemic cell line, UT7/EPO-mpl.
UT7/EPO-mpl is a stable transformed cell line obtained by introducing into human leukemic cell line UT7/EPO a vector that induces expression of human thrombopoietin receptor (c-mpl) under control of cytomegalovirus immediate-early promoter by the method of Takatoku et al. (J. Biol. Chem., 272:7259-7263 (1997)). […] These two cell lines were subcultured in IMDM (Invitrogen) containing 10% fetal bovine serum (Thermo Electron or BioWest) using a CO2 incubator (5% CO2, 37° C.).
The subcultured cells described above were washed twice with PBS and suspended in IMDM containing 10% fetal bovine serum at a cell density of 6×10^4 cells/ml. The cell suspension was transferred to a 96-well tissue culture plate (CORNING) in 100-μl aliquots. Then either thrombopoietin (Pepro Tech EC) or the compound of Synthetic Examples dissolved in dimethyl sulfoxide were diluted 83-fold with IMDM containing 10% fetal bovine serum and added to the aforementioned cell suspension in 20-μl aliquots. The cell suspension was incubated in a CO2 incubator (5% CO2, 37° C.) for 4 days. Cell proliferation was assayed using WST-8 reagent (Kishida Chemical Co., Ltd.) according to instructions by the manufacturer. A 10-μl aliquot of 5 mM WST-8 reagent solution was added to each well of the tissue culture plate, and the plate was incubated at 37° C. for 4 hours. The formazan pigment generated was detected by measuring the absorbance at 450 nm with a 96-well microplate reader (Nihon Molecular Devices, Spectramax 190).

Compared with `C/C(=N\NC(=O)c1ccc(C(=O)NCc2ccncc2)s1)c1nn(C)c(-c2ccc3c(c2)CCC3)c1O` [compound 1], `C/C(=N\NC(=O)c1ccc(C(=O)NCCc2ccncc2)s1)c1nn(C)c(-c2ccc3c(c2)CCC3)c1O` [compound 2] is 2.2-fold higher in EC50: 1.55 nM for the first, 3.4 nM for the second.

First: CCN(CC)C(=O)c1ccc(C(=O)N/N=C(\C)c2nn(C)c(-c3ccc4c(c3)CCC4)c2O)s1 [compound 3]
Second: C/C(=N\NC(=O)c1ccc(C(=O)O)s1)c1nn(C)c(-c2ccc3c(c2)CCC3)c1O [compound 10]
The EC50 of the first is 1.5-fold higher: 70.3 nM for the first, 45.5 nM for the second. The second is the more potent here.

First: C/C(=N\NC(=O)c1ccc(C(=O)N2CCCC2)s1)c1nn(C)c(-c2ccc3c(c2)CCC3)c1O [compound 4]
Second: COC(=O)c1ccc(C(=O)N/N=C(\C)c2nn(C)c(-c3ccc4c(c3)CCC4)c2O)s1 [compound 6]
The EC50 of the first is 1.7-fold lower: 11.1 nM for the first, 18.9 nM for the second.

First: COC(=O)c1ccc(C(=O)N/N=C(\C)c2nn(C)c(-c3ccc4c(c3)CCC4)c2O)cc1[N+](=O)[O-] [compound 5]
Second: C/C(=N\NC(=O)c1ccc(C(=O)O)c([N+](=O)[O-])c1)c1nn(C)c(-c2ccc3c(c2)CCC3)c1O [compound 12]
The EC50 of the first is 6.8-fold higher: 11.7 nM for the first, 1.73 nM for the second. The second is the more potent here.

`COC(=O)c1ccc(C(=O)N/N=C(\C)c2nn(C)c(-c3ccc4c(c3)CCC4)c2O)cc1` [compound 7] and `C/C(=N\NC(=O)c1ccc(C(=O)O)cc1)c1nn(C)c(-c2ccc3c(c2)CCC3)c1O` [compound 11] are within 1.5-fold of each other in EC50: 43 nM for the first, 57.6 nM for the second.

`COC(=O)C1CCN(C(=S)N/N=C(\C)c2nn(C)c(-c3ccc4c(c3)CCC4)c2O)CC1` [compound 8] and `C/C(=N\NC(=S)N1CCC(C(=O)O)CC1)c1nn(C)c(-c2ccc3c(c2)CCC3)c1O` [compound 9] are within 1.5-fold of each other in EC50: 99.4 nM for the first, 76.5 nM for the second.

Compared with `C/C(=N\NC(=S)Nc1ccc(C(=O)O)cc1)c1nn(C)c(-c2ccc3c(c2)CCC3)c1O` [compound 13], `C/C(=N\NC(=S)Nc1cccc(C(=O)O)c1)c1nn(C)c(-c2ccc3c(c2)CCC3)c1O` [compound 14] is 2.6-fold lower in EC50: 59.2 nM for the first, 22.7 nM for the second. The second is the more potent here.

Going from `C/C(=N\NC(=S)Nc1ccc(C(=O)O)c(Cl)c1)c1nn(C)c(-c2ccc3c(c2)CCC3)c1O` [compound 15] to `C/C(=N\NC(=S)Nc1ccc(C(=O)O)c(Cl)c1)c1csc(-c2ccc3c(c2)CCC3)c1O` [compound 41], the EC50 falls from 12.8 nM to 6.79 nM (1.9-fold).

Compared with `C/C(=N\NC(=O)c1ccc(C(=O)NCCc2ccncc2)s1)c1csc(-c2ccc3c(c2)CCCC3)c1O` [compound 16], `C/C(=N\NC(=O)c1ccc(C(=O)NCCc2ccncc2)s1)c1csc(-c2ccc3c(c2)CCC3)c1O` [compound 26] is 1.7-fold higher in EC50: 0.496 nM for the first, 0.867 nM for the second.

`C/C(=N\NC(=S)Nc1cccc(C(=O)O)c1)c1csc(-c2ccc3c(c2)CCCC3)c1O` [compound 17] and `C/C(=N\NC(=S)Nc1cccc(C(=O)O)c1)c1csc(-c2ccc3c(c2)CCC3)c1O` [compound 59] are within 1.5-fold of each other in EC50: 49.4 nM for the first, 53.1 nM for the second.

Compared with `C/C(=N\NC(=O)c1ccc(C(=O)NCc2ccncc2)s1)c1csc(-c2ccc3c(c2)CCO3)c1O` [compound 18], `C/C(=N\NC(=O)c1ccc(C(=O)NCCc2ccncc2)s1)c1csc(-c2ccc3c(c2)CCO3)c1O` [compound 19] is 5.6-fold higher in EC50: 5.4 nM for the first, 30 nM for the second.

Compared with `C/C(=N\NC(=O)c1ccc(C(=O)N2CCCC2)s1)c1csc(-c2ccc3c(c2)CCO3)c1O` [compound 21], `C/C(=N\NC(=O)c1ccc(C(=O)N2CCCC2)s1)c1csc(-c2ccc3c(c2)CCC3)c1O` [compound 28] is 17-fold lower in EC50: 99.7 nM for the first, 5.84 nM for the second.

`C/C(=N\NC(=O)c1ccc(C(=O)NCc2ccncc2)s1)c1csc(-c2ccc3c(c2)CCC3)c1O` [compound 25] and `C/C(=N\NC(=O)c1ccc(C(=O)NCc2ccncc2)s1)c1csc(-c2ccc3c(c2)CCCC3)c1O` [compound 32] are within 1.5-fold of each other in EC50: 0.523 nM for the first, 0.452 nM for the second.

`CCN(CC)C(=O)c1ccc(C(=O)N/N=C(\C)c2csc(-c3ccc4c(c3)CCC4)c2O)s1` [compound 27] and `CCN(CC)C(=O)c1ccc(C(=O)N/N=C(\C)c2csc(-c3ccc4c(c3)CCCC4)c2O)s1` [compound 33] are within 1.5-fold of each other in EC50: 6.44 nM for the first, 4.84 nM for the second.

First: COC(=O)c1ccc(C(=O)N/N=C(\C)c2csc(-c3ccc4c(c3)CCC4)c2O)cc1[N+](=O)[O-] [compound 29]
Second: C/C(=N\NC(=O)c1ccc(C(=O)O)c([N+](=O)[O-])c1)c1csc(-c2ccc3c(c2)CCC3)c1O [compound 51]
The EC50 of the first is 29-fold higher: 12.9 nM for the first, 0.451 nM for the second.

First: COC(=O)c1ccc(C(=O)N/N=C(\C)c2csc(-c3ccc4c(c3)CCC4)c2O)s1 [compound 30]
Second: COC(=O)c1ccc(C(=O)N/N=C(\C)c2csc(-c3ccc4c(c3)CCCC4)c2O)s1 [compound 36]
The EC50 of the first is 2-fold higher: 18.8 nM for the first, 9.46 nM for the second. The second is the more potent here.

`COC(=O)c1ccc(C(=O)N/N=C(\C)c2csc(-c3ccc4c(c3)CCC4)c2O)cc1` [compound 31] and `COC(=O)c1ccc(C(=O)N/N=C(\C)c2csc(-c3ccc4c(c3)CCCC4)c2O)cc1` [compound 37] are within 1.5-fold of each other in EC50: 52.9 nM for the first, 40.1 nM for the second.

First: C/C(=N\NC(=O)c1ccc(C(=O)N2CCCC2)s1)c1csc(-c2ccc3c(c2)CCCC3)c1O [compound 34]
Second: C/C(=N\NC(=O)c1ccc(C(=O)O)s1)c1csc(-c2ccc3c(c2)CCCC3)c1O [compound 53]
The EC50 of the first is 1.9-fold higher: 2.43 nM for the first, 1.25 nM for the second. The second is the more potent here.

`C/C(=N\NC(=S)Nc1ccc(C(=O)O)c(Cl)c1)c1csc(-c2ccc3c(c2)CCO3)c1O` [compound 39] and `C/C(=N\NC(=S)Nc1ccc(C(=O)O)cc1)c1csc(-c2ccc3c(c2)CCO3)c1O` [compound 56] are within 1.5-fold of each other in EC50: 43 nM for the first, 57.3 nM for the second.

`COC(=O)C1CCN(C(=S)N/N=C(\C)c2csc(-c3ccc4c(c3)CCC4)c2O)CC1` [compound 40] and `COC(=O)C1CCN(C(=S)N/N=C(\C)c2csc(-c3ccc4c(c3)CCCC4)c2O)CC1` [compound 42] are within 1.5-fold of each other in EC50: 52.4 nM for the first, 48.8 nM for the second.

`C/C(=N\NC(=S)Nc1ccc(C(=O)O)c(Cl)c1)c1csc(-c2ccc3c(c2)CCCC3)c1O` [compound 43] and `C/C(=N\NC(=S)Nc1ccc(C(=O)O)cc1)c1csc(-c2ccc3c(c2)CCCC3)c1O` [compound 60] are within 1.5-fold of each other in EC50: 4.8 nM for the first, 5.8 nM for the second.

First: C/C(=N\NC(=O)c1ccc(C(=O)O)cc1)c1csc(-c2ccc3c(c2)CCO3)c1O [compound 46]
Second: C/C(=N\NC(=O)c1ccc(C(=O)O)cc1)c1csc(-c2ccc3c(c2)CCC3)c1O [compound 50]
The EC50 of the first is 54-fold higher: 94.7 nM for the first, 1.76 nM for the second.

Compared with `C/C(=N\NC(=O)c1ccc(C(=O)O)c([N+](=O)[O-])c1)c1csc(-c2ccc3c(c2)CCO3)c1O` [compound 47], `C/C(=N\NC(=O)c1ccc(C(=O)O)c([N+](=O)[O-])c1)c1csc(-c2ccc3c(c2)CCCC3)c1O` [compound 55] is 140-fold lower in EC50: 55.6 nM for the first, 0.396 nM for the second. The second is the more potent here.

`C/C(=N\NC(=S)N1CCC(C(=O)O)CC1)c1csc(-c2ccc3c(c2)CCC3)c1O` [compound 48] and `C/C(=N\NC(=S)N1CCC(C(=O)O)CC1)c1csc(-c2ccc3c(c2)CCCC3)c1O` [compound 52] are within 1.5-fold of each other in EC50: 4.06 nM for the first, 3.71 nM for the second.

`C/C(=N\NC(=O)c1ccc(C(=O)O)s1)c1csc(-c2ccc3c(c2)CCC3)c1O` [compound 49] and `C/C(=N\NC(=O)c1ccc(C(=O)O)cc1)c1csc(-c2ccc3c(c2)CCCC3)c1O` [compound 54] are within 1.5-fold of each other in EC50: 3.28 nM for the first, 2.99 nM for the second.

`C/C(=N\NC(=S)Nc1ccc(C(=O)O)cc1)c1csc(-c2ccc3c(c2)CCC3)c1O` [compound 58] and `C/C(=N\NC(=S)Nc1ccc(-c2nnn[nH]2)cc1)c1csc(-c2ccc3c(c2)CCCC3)c1O` [compound 62] are within 1.5-fold of each other in EC50: 5.76 nM for the first, 4.08 nM for the second.

`C/C(=N\NC(=S)Nc1cccc(-c2nnn[nH]2)c1)c1csc(-c2ccc3c(c2)CCCC3)c1O` [compound 61] showed an EC50 of 4.08 nM.
